Blank lines part the entries; values can stand above or below the compound they belong to.
Columns and labels:
ISA brown hens [1] = test: Egg cholesterol analysis (yolk weight, gas chromatography of yolk cholesterol) of hens fed supplemented diet; assay type: in vivo; details: compared to control
Procedure: (§1) Healthy ISA brown hens, 45-week old, were assigned randomly to each dietary group (control group, 8 birds; experimental group, 6 birds each). Each bird was placed in an individual cage in an environmentally controlled room (25° C., 50% relative humidity, 16L:8D). The hens were allowed for 2 weeks in which to adapt to the feed with no additives and the housing. Control birds were fed a commercial diet based on corn and soybean meal (Table 1), while birds in experimental groups were fed diets supplemented with 0.003 or 0.03% of compactin (Sigma Aldrich Korea) for 6 weeks. Feed and water were provided ad libitum throughout the experiment. Feed consumption, egg production and egg weight were recorded daily. Egg production was expressed as percent hen day production; (100×number of eggs laid)/(number of hens×days).
For egg cholesterol analysis, eggs from each bird were collected and egg yolk was separated, weighed, and sampled for analysis. Lipids from eggs were extracted by the method of Folch et al. (1957). Briefly, one gram of sample was saponified with 3 mL of 33% KOH and incubated with 30 mL of 95% methanol in a 65° C. water bath for 90 min. After saponification, 10 mL hexane and 3 mL water were added, followed by vigorous shaking for 10 min. 5α-cholestan (Sigma C-8300) was used as an internal standard. Cholesterol content was determined by a gas chromatography (Shimadzu, Japan) using column VB-1 (30 m×0.25 mm×0.25 μm, VICI Inc.) with a split ratio of 100:1 and nitrogen as carrier gas for a column flow rate of 0.54 mL/min. Injector, column, and detector temperatures were 275° C., 290° C., and 340° C., respectively. […] The average control yolk weight was 17.2 g. […] Administration of compactin caused the significant reduction in yolk weight, compared to the control with 12.8 mg cholesterol per gram of yolk. When expressed as total yolk cholesterol content, percentage changes compared to that of control were 16% and 29% at 0.003% and 0.03% compactin, respectively.
Streptomyces cell precipitates and cell culture broth after compactin bioconversion were used as cholesterol lowering supplements respectively. First, compactin bioconversion was done as following. Single colony of streptomyces carbophilus was inoculated into 100 ml R2YE in 500 ml erlenmyer flask and incubated at 27° C. at 200 rpm for 3 days. After incubation, 10 ml of seed culture was added to 100 ml of conversion media (glucose 2.0%, corn steep liquor 0.2%, K2HPO4 0.15%, yeast extract 0.1%, MgSO4.7H2O 0.15%, ZnSO47H2O 0.001%, NH4NO3 0.1%, peptone 0.1%, pH 7.0) in 500 ml flask and incubated at 27° C. at 200 rpm for 3 days. Then, filter sterilized compactin salt was added into culture up to 0.1% weight of culture and incubated for another 4 days. After bioconversion reaction, culture media was analyzed by TLC to confirm the presence of compactin and pravastatin. This culture was freeze dried for 24 hours and then used as cholesterol lowering supplements. Also Streptomyces cells were obtained from bioconversion reaction by centrifugation at 3,000×g. Streptomyces cell precipitates recovered as pellets was dried at 60° C. and used as cholesterol lowering supplements. Streptomyces cell precipitates as well as bioconversion reaction broth was dried and used as cholesterol lowering supplements as shown in Example 1. Egg production and cholesterol amount were measured afterward.
(§2) Egg production and yolk cholesterol analysis was performed with the same procedure as described in Example 1 above except 0.5 and 1% of Streptomyces cell precipitates and bioconversion reaction broth were administered instead of compactin. Hen performance was investigated by measuring egg weight and egg production as in Table 6.

[2] = cited from earlier work
ISA brown hens [3] = test: Egg laying performance of hens fed supplemented diet (egg weight, egg production); assay type: in vivo; details: for Egg production: 6 weeks
Procedure: as §1
The effects of 0.003% or 0.03% compactin on the laying performance of 45-week old ISA brown hens were investigated (Table 2). Egg weight was maintained at more than 60 grams after 6 weeks of oral administrations of compactin at both doses. […] Maintenance of laying performance with compactin feeding is of contrast to the previous art in which atorvastatin reduced egg production down to 70% after feeding for 5-week.
Egg production and yolk cholesterol analysis was performed with 0.003 and 0.03% pravastatin administered group with the same procedure as described in Example 1 above. Hen performance was investigated by measuring egg weight and egg production as in Table 4. Pravastatin group had maintained above 80% of egg production rate after 6-week administration, same as control.
as §2

hens [4] = details: cited from earlier work
hens [5] = details: cited from earlier work; remark: listed apart in the source
[6] = 0.003 weight % pravastatin in feed
[7] = 0.03 weight % pravastatin in feed

Reduction rates in the production of eggs (ISA brown hens [3]; in vivo): at most 5%
Compound: CC[C@H](C)C(=O)O[C@H]1CCC=C2C=C[C@H](C)[C@H](CC[C@@H]3C[C@@H](O)CC(=O)O3)[C@H]21 [Compactin, compactin]
Cholesterol content change (ISA brown hens [1]; 0.003 weight % compactin in feed): −16% | Cholesterol content change (ISA brown hens [1]; 0.003 weight % compactin in feed, listed as compactin): -16% | Cholesterol content change (ISA brown hens [1]; 0.03 weight % compactin in feed): −29% | Cholesterol content change (ISA brown hens [1]; 0.03 weight % compactin in feed, listed as compactin): -29% | Toxicity in clinical trials [2]: serious toxicity | Difference in egg production compared to the control group (ISA brown hens [3]; in vivo): did not cause any difference in egg production

Compound: CC(C)c1c(C(=O)Nc2ccccc2)c(-c2ccccc2)c(-c2ccc(F)cc2)n1CC[C@@H](O)C[C@@H](O)CC(=O)O [atorvastatin]
Effect on the cholesterol content in eggs (hens [4]; according to U.S. Pat. No. 6,177,121): distinctly effective | Reduction of egg production versus control group (hens [5]; 2, 3 and 4 weeks after administration, Table 2 of U.S. Pat. No. 6,177,121): 20% | Egg production reduced down to (hens [5]; after feeding for 5-week): 70%

Compound: CC[C@H](C)C(=O)O[C@H]1C[C@@H](C)C=C2C=C[C@H](C)[C@H](CC[C@@H]3C[C@@H](O)CC(=O)O3)[C@H]21 [lovastatin]
Reduction in cholesterol content in eggs (hens [4]; dose of 0.03%): ~3.9%

Compound: pravastatin
Cholesterol content change (ISA brown hens [1]; [6]): −6% | Cholesterol content change (ISA brown hens [1]; [7]): −24% | Egg production (ISA brown hens [3]; [6]): 84% | Egg production (ISA brown hens [3]; [7]): 82% | Egg production rate maintained (ISA brown hens [3]; after 6-week administration of pravastatin (0.003 and 0.03%)): above 80%

Source: US20110217412A1, “CHOLESTEROL LOWERING SUPPLEMENT AND LOW CHOLESTEROL EGG PRODUCED BY USING THE SAME” (JINIS BIOPHARMACEUTICALS CO., priority 2004, published 2011)
